These results are taken from patent publication US4057636A, “Antihypertensive pyridylguanidine compounds” (Leo Pharmaceutical Products Ltd. A/S, priority 1974, dated 1977).

Each structure is given as a SMILES string.

The term LD50 denotes the dose at which mortality reaches 50%. A low value points to greater toxicity.

Series [1] relates to conscious spontaneously hypertensive rats. Briefly: Antihypertensive activity in conscious spontaneously hypertensive rats. The series is classed as in vivo, rat (spontaneously hypertensive Okamoto strain). The protocol:
Male albino rats, spontaneously hypertensive Okamoto strain, fasting 16 hours before the experiments were used. The conscious animals were restrained in a plastic cage and a cuff was secured around the tail. The cuff was connected with an electronic blood pressure recorder. The systolic blood pressure and the heart rate were measured before and 2, 4, 6, and 24 hours after the administration of compounds. The compounds were suspended or dissolved in carboxymethylcellulose 0.5%. […] There are also included, for comparison, the results obtained under the same experimental conditions with some known antihypertensive drugs, and the approximate oral LD50 in mice are stated.

The nature of the next series: in vivo. The settings on record: mouse.
In series [2] the test system is conscious normotensive dogs. The experiment in a line: Hypotensive activity in conscious normotensive dogs. The series is classed as in vivo, dog (mongrel). The following applies: 0.1 mg/kg oral. The protocol: Hypotensive activity in conscious normotensive dogs
Mongrel dogs of both sexes, fasting 16 hours before the experiment were used. […] The compounds were orally administered in gelatine capsules.

As to `NNc1nncc2ccccc12` [Hydralazine, reference compound], the BP turned out to be 162 mm Hg in series [1] (2.0 mg/kg, 2 hours); 163 mm Hg in series [1] (2.0 mg/kg, 4 hours); 174 mm Hg in series [1] (2.0 mg/kg, 24 hours); 150 mm Hg in series [1] (5.0 mg/kg, 2 hours); 152 mm Hg in series [1] (5.0 mg/kg, 4 hours); 170 mm Hg in series [1] (5.0 mg/kg, 24 hours). For the same molecule, the HR worked out at 425 beats/minute in series [1] (2.0 mg/kg, 2 hours); 413 beats/minute in series [1] (2.0 mg/kg, 4 hours); 379 beats/minute in series [1] (2.0 mg/kg, 24 hours); 405 beats/minute in series [1] (5.0 mg/kg, 2 hours); 410 beats/minute in series [1] (5.0 mg/kg, 4 hours); 380 beats/minute in series [1] (5.0 mg/kg, 24 hours). Also, in “in vivo” (mice, oral, printed with (114-130)), the LD50 amounted to 122 mg/kg.

With `N=c1nc(N2CCCCC2)cc(N)n1O` [Minoxidil, 6-Amino-1,2-dihydro-1-hydroxy-2-imino-4-piperid-1-ylpyrimidine, reference compound], the BP in series [1] (0.5 mg/kg, 2 hours) came to 161 mm Hg; in series [1] (0.5 mg/kg, 4 hours), 153 mm Hg; in series [1] (0.5 mg/kg, 24 hours), 167 mm Hg; in series [1] (1.0 mg/kg, 2 hours), 158 mm Hg; in series [1] (1.0 mg/kg, 4 hours) it was 146 mm Hg; in series [1] (1.0 mg/kg, 24 hours) it was 169 mm Hg. In addition, the HR in series [1] (0.5 mg/kg, 2 hours) amounted to 409 beats/minute; in series [1] (0.5 mg/kg, 4 hours), 411 beats/minute; in series [1] (0.5 mg/kg, 24 hours) it was 400 beats/minute; in series [1] (1.0 mg/kg, 2 hours), 431 beats/minute; in series [1] (1.0 mg/kg, 4 hours), 424 beats/minute; in series [1] (1.0 mg/kg, 24 hours), 407 beats/minute.

Take `CCC(C)(CC)NC(=NC#N)Nc1cccnc1` [P 1066, N"-cyano-N-(1-ethyl-1-methylpropyl)-N'-3-pyridylguanidine]: the BP in series [1] (0.05 mg/kg, 2 hours) worked out at 155 mm Hg; in series [1] (0.05 mg/kg, 4 hours), 170 mm Hg; in series [1] (0.05 mg/kg, 24 hours), 178 mm Hg; in series [1] (0.5 mg/kg, 2 hours) it was 146 mm Hg; in series [1] (0.5 mg/kg, 4 hours) it was 143 mm Hg; in series [1] (0.5 mg/kg, 24 hours), 181 mm Hg. Moreover, the BP is listed as 113 mm Hg in series [1] (2.5 mg/kg, 2 hours); 100 mm Hg in series [1] (2.5 mg/kg, 4 hours); 114 mm Hg in series [1] (2.5 mg/kg, 6 hours); 152 mm Hg in series [1] (2.5 mg/kg, 24 hours); below 100 mm Hg in series [1] (10.0 mg/kg, 2 hours); below 100 mm Hg in series [1] (10.0 mg/kg, 4 hours). Besides, the BP in series [1] (10.0 mg/kg, 6 hours) was below 100 mm Hg; in series [1] (10.0 mg/kg, 24 hours), 126 mm Hg. In addition, the HR is reported as 462 beats/minute in series [1] (0.05 mg/kg, 2 hours); 417 beats/minute in series [1] (0.05 mg/kg, 4 hours); 413 beats/minute in series [1] (0.05 mg/kg, 24 hours); 437 beats/minute in series [1] (0.5 mg/kg, 2 hours); 413 beats/minute in series [1] (0.5 mg/kg, 4 hours); 413 beats/minute in series [1] (0.5 mg/kg, 24 hours). Besides, the HR is recorded as 386 beats/minute in series [1] (2.5 mg/kg, 2 hours); 375 beats/minute in series [1] (2.5 mg/kg, 6 hours); 335 beats/minute in series [1] (2.5 mg/kg, 24 hours); 336 beats/minute in series [1] (10.0 mg/kg, 24 hours). For the same molecule, in the series “in vivo” (po, p.o. (mice), approximate), the LD50 was above 1000 mg/kg.

In the case of `CCCC(C)(C)NC(=NC#N)Nc1cccnc1` [P 1067, N"-cyano-N-(1,1-dimethylbutyl)-N'-3-pyridylcuanidine], the BP in series [1] (0.5 mg/kg, 2 hours) turned out to be 158 mm Hg; in series [1] (0.5 mg/kg, 4 hours) it was 168 mm Hg; in series [1] (0.5 mg/kg, 24 hours), 176 mm Hg. Also, the HR in series [1] (0.5 mg/kg, 2 hours) amounted to 440 beats/minute; in series [1] (0.5 mg/kg, 4 hours) it was 413 beats/minute; in series [1] (0.5 mg/kg, 24 hours), 408 beats/minute. The LD50 in the series “in vivo” (po) is above 1000 mg/kg.

`CCC(CC)(CC)NC(=NC#N)Nc1cccnc1` [P 1068, N"-cyano-N-(1,1-diethylpropyl)-N'-3-pyridylguanidine]: the BP amounted to 131 mm Hg in series [1] (0.5 mg/kg, 2 hours); 146 mm Hg in series [1] (0.5 mg/kg, 4 hours); 180 mm Hg in series [1] (0.5 mg/kg, 24 hours). Also, the HR in series [1] (0.5 mg/kg, 2 hours) amounted to 473 beats/minute; in series [1] (0.5 mg/kg, 4 hours), 437 beats/minute; in series [1] (0.5 mg/kg, 24 hours), 383 beats/minute. Further, the LD50 in the series “in vivo” (po, p.o. (mice), approximate) is above 1000 mg/kg.

Take `CCC(C)(C)NC(=NC#N)Nc1cccnc1` [P 1075, N"-cyano-N-tert-pentyl-N'-3-pyridylguanidine]: the BP in series [1] (0.05 mg/kg, 2 hours) is recorded as 105 mm Hg; in series [1] (0.05 mg/kg, 4 hours) it was 102 mm Hg; in series [1] (0.05 mg/kg, 24 hours), 164 mm Hg; in series [2] (Dog I, 1 hour), 72 mm Hg; in series [2] (Dog I, 2 hours), 75 mm Hg; in series [2] (Dog I, 3 hours), 85 mm Hg. The BP is 95 mm Hg in series [2] (Dog I, 4 hours); 82 mm Hg in series [2] (Dog II, 1 hour); 74 mm Hg in series [2] (Dog II, 2 hours); 92 mm Hg in series [2] (Dog II, 3 hours); 115 mm Hg in series [2] (Dog II, 4 hours); 95 mm Hg in series [2] (Dog III, 1 hour). Moreover, the BP in series [2] (Dog III, 2 hours) is given as 90 mm Hg; in series [2] (Dog III, 3 hours), 104 mm Hg; in series [2] (Dog III, 4 hours) it was 110 mm Hg. For the same molecule, the HR in series [1] (0.05 mg/kg, 2 hours) worked out at 450 beats/minute; in series [1] (0.05 mg/kg, 4 hours) it was 432 beats/minute; in series [1] (0.05 mg/kg, 24 hours), 348 beats/minute; in series [2] (Dog I, 1 hour) it was 160 beats/minute; in series [2] (Dog I, 2 hours) it was 180 beats/minute; in series [2] (Dog I, 3 hours), 142 beats/minute. Moreover, the HR in series [2] (Dog I, 4 hours) turned out to be 135 beats/minute; in series [2] (Dog II, 1 hour), 175 beats/minute; in series [2] (Dog II, 2 hours), 185 beats/minute; in series [2] (Dog II, 3 hours), 163 beats/minute; in series [2] (Dog II, 4 hours), 140 beats/minute; in series [2] (Dog III, 1 hour), 185 beats/minute. Besides, the HR is recorded as 175 beats/minute in series [2] (Dog III, 2 hours); 149 beats/minute in series [2] (Dog III, 3 hours); 140 beats/minute in series [2] (Dog III, 4 hours). This molecule gave a median lethal dose (LD50) in “in vivo” (po, p.o. (mice), approximate) of 1000 mg/kg.
